Results published in patent US20230346670A1, “Prebiotic Oral Care Compositions and Methods” (Colgate-Palmolive Company, priority 2020, published 2023).
Marks after values point to notes of the source that are not given here.

Assays:
Format in all cases: cell-based
[1] = tested on: multi-species biofilm (beneficial/commensal species, periodontal pathogens, cariogenic pathogens); assay: Multi-species biofilm composition, relative proportions and group changes
Description: Biofilms are grown vertically on Calcium Deficient Hydroxyapatite (CAD-HA) disks (Hitemco Medical, Old Bethpage, USA) using the Amsterdam Active Adhesion model. […] After this 24 h, disks are rinsed 3 times a day for 3 minutes (RT, 250 rpm), for 3 consecutive days, by transferring the lid containing the disks to a new 24-well plate containing 2 mL/well of the appropriate substrate solution. As a negative control, PBS (pH 5.7) without substrate supplementation is used. N-acetyl-D-glucosamine (NADG), α-D-lactose, D-(+)-trehalose and D-(+)-raffinose are selected to determine their effects on multi-species biofilm composition. Repeated rinsing of the biofilms with the substrates at a concentration of 1 M results in a significant decrease in absolute numbers in at least four of the pathogenic bacterial species tested in the assay, in comparison to the control, the results of which are described in Table 1 below. Note, NADG decreased absolute numbers of S. sobrinus. Absolute abundances of bacterial species are shown as mean ± SD (n = 3) logarithmic values of the genome equivalents per millilitre (log(Geq/mL)).

[2] = tested on: P. gingivalis virulence genes; assay: Virulence gene expression in multi-species biofilm (SYBR RT-qPCR); conditions: relative to control, 2^-ΔΔCt, n = 3
Description: (§1) Biofilms are grown vertically on Calcium Deficient Hydroxyapatite (CAD-HA) disks (Hitemco Medical, Old Bethpage, USA) using the Amsterdam Active Adhesion model. Biofilms are allowed to establish during 24 h (37° C., 170 rpm) under microaerophilic conditions (6% O2, 7% CO2, 7% H2, 80% N2). After this 24 h, disks are rinsed 3 times a day for 3 minutes (RT, 250 rpm), for 3 consecutive days, by transferring the lid containing the disks to a new 24-well plate containing 2 mL/well of the appropriate substrate solution. As a negative control, PBS (pH 5.7) without substrate supplementation is used.
(§2) The virulence of the substrate-treated multi-species biofilms are evaluated by analyzing the relative expression of 33 genes that are recognized as being related to some form of virulence and from 4 periodontal pathogens.
(§3) Expression of bacterial virulence genes is analyzed through SYBR RT-qPCR and normalized for bacterial housekeeping gene expression. […] These effects are illustrated in Tables 6a and 6b:
(§4) Note, for Tables 6a and 6b, that fold changes in virulence gene expression are determined relative to the control condition through the 2^^-ΔΔCt method and are shown as the geometric mean (C.I.) (n = 3) of the 2^^-ΔΔ ^Ct values. All substrates are dissolved in PBS at a concentration of 1 M (upper part) or 1%(w/v) (lower part). Values between 0 and 1 represent relative downregulation, values >1 represent relative upregulation. […] NADG: N-acetyl-D-glucosamine; C.I.: 95% confidence interval.

[3] = tested on: A. actinomycetemcomitans virulence genes; assay: as above
Description: as §1, §2, §3, §4

[4] = tested on: F. nucleatum virulence genes; assay: as above; conditions: relative to control = 1, 2^-ΔΔCt, n = 3
Description: as §1, §2, §3
as §4, with “Table 6c,” for “Tables 6a and 6b, that”, “2^^-ΔΔCt” for “2^^-ΔΔ ^Ct”

[5] = tested on: S. mitis; assay: Multi-species biofilm composition, absolute abundance (Geq/mL); conditions: repeated rinsing
Description: as §1
(§5) N-acetyl-D-glucosamine (NADG), α-D-lactose, D-(+)-trehalose and D-(+)-raffinose are selected to determine their effects on multi-species biofilm composition. Repeated rinsing of the biofilms with the substrates at a concentration of 1 M results in a significant decrease in absolute numbers in at least four of the pathogenic bacterial species tested in the assay, in comparison to the control, the results of which are described in Table 1 below. Note, NADG decreased absolute numbers of S. sobrinus. Absolute abundances of bacterial species are shown as mean ± SD (n = 3) logarithmic values of the genome equivalents per millilitre (log(Geq/mL)).

[6] = tested on: A. naeslundii; assay: as above; conditions: repeated rinsing
Description: as §1, §5

[7] = tested on: S. gordonii; assay: as above; conditions: repeated rinsing
Description: as §1, §5

[8] = tested on: S. sobrinus; assay: as above; conditions: repeated rinsing
Description: as §1, §5

[9] = tested on: S. oralis; assay: as above; conditions: repeated rinsing
Description: as §1, §5

[10] = tested on: P. gingivalis; assay: as above; conditions: repeated rinsing
Description: as §1, §5

[11] = Table 1a, substrate 1 M, listed as α-D-lactose
[12] = Table 3, separate experiments, concentration not given
[13] = lower part of Table 6a, substrate 1%(w/v), relative to control = 1
[14] = substrate 1 M, relative to control = 1, 2^-ΔΔCt, n = 3

Compound: OC[C@H]1O[C@@H](O[C@H]2[C@H](O)[C@@H](O)[C@@H](O)O[C@@H]2CO)[C@H](O)[C@@H](O)[C@H]1O [D-lactose, α-D-lactose]
- relative proportion of beneficial or commensal species in biofilm ([1]; Table 1a, substrate 1 M): 92.72 (+/- 4.39)^∗ % (Geq/mL)
- relative proportion of cariogenic pathogens in biofilm ([1]; Table 1a, substrate 1 M): 5.82 (+/- 3.94) % (Geq/mL)
- relative proportion of periodontal pathogens in biofilm ([1]; Table 1a, substrate 1 M): 1.46 (+/- 0.64)^∗ % (Geq/mL)
- relative proportion of beneficial or commensal species in biofilm [1, 11]: 92.72±4.39 % (Geq/mL)
- relative proportion of cariogenic pathogens in biofilm [1, 11]: 5.82±3.94 % (Geq/mL)
- relative proportion of periodontal pathogens in biofilm [1, 11]: 1.46±0.64 % (Geq/mL)
- relative proportion of beneficials/commensals in biofilm [1, 12]: 64.14 (+/- 9.81) % (Geq/mL)
- relative proportion of cariogenic pathogens in biofilm [1, 12]: 0.21 (+/- 0.08) % (Geq/mL)
- relative proportion of periodontal pathogens in biofilm [1, 12]: 35.65 (+/- 9.88) % (Geq/mL)
- fold change in fimA expression, geometric mean (95% C.I.) ([2]; substrate 1 % (w/v)): 1.48 (0.27-8.02) fold
- fold change in kgp expression, geometric mean (95% C.I.) ([2]; substrate 1 % (w/v)): 1.95 (0.45-8.59) fold
- fold change in partC expression, geometric mean (95% C.I.) ([2]; substrate 1 % (w/v)): 0.47 (0.07-3.04) fold
- fold change in rgpA expression, geometric mean (95% C.I.) ([2]; substrate 1 % (w/v)): 1.49 (0.70-3.20) fold
- fold change in fimA expression, geometric mean (95% C.I.) ([2]; substrate 1 M): 0.06 (0.00-1.08)^∗ fold
- fold change in kgp expression, geometric mean (95% C.I.) ([2]; substrate 1 M): <LOD
- fold change in partC expression, geometric mean (95% C.I.) ([2]; substrate 1 M): 0.03 (0.01-0.17)^∗ fold
- fold change in rgpA expression, geometric mean (95% C.I.) ([2]; substrate 1 M): 0.01 (0.00-4.60)^∗ fold
- fold change in aae expression, geometric mean (95% C.I.) [3, 13]: 1.36 (0.70-2.67) fold
- fold change in apaH expression, geometric mean (95% C.I.) [3, 13]: 0.84 (0.29-2.49) fold
- fold change in cdtB expression, geometric mean (95% C.I.) [3, 13]: 0.66 (0.21-2.03) fold
- fold change in emaA expression, geometric mean (95% C.I.) [3, 13]: 0.34 (0.25-0.45)^∗ fold
- fold change in flp expression, geometric mean (95% C.I.) [3, 13]: 0.81 (0.08-7.83) fold
- fold change in ltxA expression, geometric mean (95% C.I.) [3, 13]: 0.04 (0.02-0.08)^∗ fold
- fold change in omp29 expression, geometric mean (95% C.I.) [3, 13]: 0.81 (0.73-0.89) fold
- fold change in omp100 expression, geometric mean (95% C.I.) [3, 13]: 0.34 (0.23-0.49)^∗ fold
- fold change in orf859 expression, geometric mean (95% C.I.) [3, 13]: 0.97 (0.37-2.54) fold
- fold change in pgA expression, geometric mean (95% C.I.) [3, 13]: 0.55 (0.41-0.74) fold
- fold change in vapA expression, geometric mean (95% C.I.) [3, 13]: 0.90 (0.60-1.35) fold
- fold change in vppA expression, geometric mean (95% C.I.) [3, 13]: 0.40 (0.14-1.15)^∗ fold
- fold change in aae expression, geometric mean (95% C.I.) [3, 14]: 0.03 (0.01-0.22)^∗ fold
- fold change in apaH expression, geometric mean (95% C.I.) [3, 14]: 0.04 (0.01-0.21)^∗ fold
- fold change in cdtB expression, geometric mean (95% C.I.) [3, 14]: 0.02 (0.00-0.21)^∗ fold
- fold change in emaA expression, geometric mean (95% C.I.) [3, 14]: 0.08 (0.06-0.11)^∗ fold
- fold change in flp expression, geometric mean (95% C.I.) [3, 14]: 0.44 (0.10-1.94) fold
- fold change in ltxA expression, geometric mean (95% C.I.) [3, 14]: 0.01 (0.00-0.08)^∗ fold
- fold change in omp29 expression, geometric mean (95% C.I.) [3, 14]: 0.42 (0.33-0.52)^∗ fold
- fold change in omp100 expression, geometric mean (95% C.I.) [3, 14]: 0.08 (0.04-0.15)^∗ fold
- fold change in orf859 expression, geometric mean (95% C.I.) [3, 14]: 0.05 (0.00-0.79)^∗ fold
- fold change in pgA expression, geometric mean (95% C.I.) [3, 14]: 4.30 (2.21-8.37)^∗ fold
- fold change in vapA expression, geometric mean (95% C.I.) [3, 14]: 0.22 (0.13-0.36)^∗ fold
- fold change in vppA expression, geometric mean (95% C.I.) [3, 14]: 0.17 (0.06-0.43)^∗ fold
- fold change in pgA expression, geometric mean (95% C.I.) ([3]; substrate 1 M, relative to control = 1, 2^-ΔΔCt, n = 3, listed as α-D-lactose): 4.3 fold
- fold change in ABC transp. perm. (ABC transporter permease) expression, geometric mean (95% C.I.) ([4]; substrate 1% (w/v)): 0.25 (0.08-0.78)^∗ fold
- fold change in EF-G expression, geometric mean (95% C.I.) ([4]; substrate 1% (w/v)): 0.13 (0.03-0.51)^∗ fold
- fold change in but. -coA transf. (butyrate-acetoacetate CoA-transferase) expression, geometric mean (95% C.I.) ([4]; substrate 1% (w/v)): 0.57 (0.40-0.83) fold
- fold change in hemin receptor expression, geometric mean (95% C.I.) ([4]; substrate 1% (w/v)): 0.17 (0.03-0.94)^∗ fold
- fold change in hemolysin expression, geometric mean (95% C.I.) ([4]; substrate 1% (w/v)): 1.00 (0.60-1.68) fold
- fold change in ompA expression, geometric mean (95% C.I.) ([4]; substrate 1% (w/v)): 1.13 (0.58-2.19) fold
- fold change in transposase expression, geometric mean (95% C.I.) ([4]; substrate 1% (w/v)): 1.26 (0.51-3.13) fold
- fold change in ABC transp. perm. (ABC transporter permease) expression, geometric mean (95% C.I.) ([4]; substrate 1 M): 16.97 (5.93-48.61)^∗ fold
- fold change in EF-G expression, geometric mean (95% C.I.) ([4]; substrate 1 M): 1.54 (0.94-2.53) fold
- fold change in but. -coA transf. (butyrate-acetoacetate CoA-transferase) expression, geometric mean (95% C.I.) ([4]; substrate 1 M): 3.88 (0.87-17.43)* fold
- fold change in hemin receptor expression, geometric mean (95% C.I.) ([4]; substrate 1 M): 36.87 (17.27-78.74)^∗ fold
- fold change in hemolysin expression, geometric mean (95% C.I.) ([4]; substrate 1 M): 6.34 (1.36-29.47)^∗ fold
- fold change in ompA expression, geometric mean (95% C.I.) ([4]; substrate 1 M): 1.26 (0.79-2.03) fold
- fold change in transposase expression, geometric mean (95% C.I.) ([4]; substrate 1 M): 172.87 (147.10-203.20)^∗ fold
- absolute abundance of S. mitis, mean ± SD log (Geq/mL) ([5]; substrate 1% (w/v)): 2.65 ± 0.00 log (Geq/mL)
- absolute abundance of S. mitis, mean ± SD log (Geq/mL) ([5]; substrate 1 M in PBS, n = 3): 3.17 ± 0.75 log (Geq/mL)
- absolute abundance of A. naeslundii (An), mean ± SD log (Geq/mL) ([6]; substrate 1% (w/v)): 7.75 ± 0.24 log (Geq/mL)
- absolute abundance of A. naeslundii (An), mean ± SD log (Geq/mL) ([6]; substrate 1 M in PBS, n = 3): 4.86 ± 0.19^∗ log (Geq/mL)
- absolute abundance of S. gordonii, mean ± SD log (Geq/mL) ([7]; substrate 1% (w/v)): 8.4 ± 0.11 log (Geq/mL)
- absolute abundance of S. gordonii, mean ± SD log (Geq/mL) ([7]; substrate 1 M in PBS, n = 3): 9.31 ± 0.41 log (Geq/mL)
- absolute abundance of S. sobrinus, mean ± SD log (Geq/mL) ([8]; substrate 1% (w/v)): 5.27 ± 0.24 log (Geq/mL)
- absolute abundance of S. sobrinus, mean ± SD log (Geq/mL) ([8]; substrate 1 M in PBS, n = 3): 7.82 ± 0.11^∗ log (Geq/mL)
- absolute abundance of S. oralis, mean ± SD log (Geq/mL) ([9]; substrate 1% (w/v)): 6.6 ± 0.17 log (Geq/mL)
- absolute abundance of S. oralis, mean ± SD log (Geq/mL) ([9]; substrate 1 M in PBS, n = 3): 7.45 ± 0.46 log (Geq/mL)
- absolute abundance of P. gingivalis (Pg), mean ± SD log (Geq/mL) ([10]; substrate 1% (w/v)): 6.93 ± 0.10 log (Geq/mL)
- absolute abundance of P. gingivalis (Pg), mean ± SD log (Geq/mL) ([10]; substrate 1 M in PBS, n = 3): 4.26 ± 0.51^∗ log (Geq/mL)
